Test results as given in patent publication US8354102B2, “Antibodies directed to mGluR7” (Hoffmann-La Roche Inc., priority 2007, dated 2013).
In the oligonucleotide strings, read from the 5' end, every base follows the letter of its sugar. An asterisk marks phosphorothioate; unmarked linkages are phosphodiester. Other units and linkages are bracketed, terminal groups are in braces. A string of capitals states the bases alone. [C6SSC6] = C6-disulfide-C6 linker; {Cy5} = Cy5 fluorescent dye label; d = 2'-deoxy (DNA); m = 2'-O-methyl; r = 2'-OH (RNA)

Columns and labels:
[1] = system: p44/42 MAPK (Thr202/Tyr204) in CHO cells expressing mGlu7 receptors; experiment: p44/42 MAPK activities (PathScan Sandwich ELISA) in CHO cells expressing mGlu7 receptors; format: cell-based, rat; settings: 5 minutes stimulation; FIG. 8C
Method: Cells stably expressing the rat mGluR7 receptor are seeded in growth medium in 6 well plates. The next day, medium is replaced with 2 ml starvation medium (Opti-MEM with 0.1% fatty acid free BSA). The following day cells are stimulated with compound in 150 μl starvation medium for the indicated times at 37° C., otherwise cells are stimulated for 5 minutes. Cells are washed with ice cold PBS and lyzed in 150 ul buffer containing 1 mM β-glycerophosphate 1 mM EDTA, 1 mM EGTA, 1 μg/ml leupeptin, 150 mM sodium chloride, 2.5 mM sodium phosphate, 20 mM Tris-Cl, 1 mM PMSF and 1% Triton X-100, scraped off and sonicated on ice. After centrifugation the supernatant is analyzed for p44/42 MAPK activities using the PathScan™ Sandwich ELISA kit according to instructions of the manufacturer. Absorbance ([…]) is read using the EnVision reader (Perkin Elmer).

rat mGlu7a receptor = target: T1, rat mGlu7a receptor (Rattus norvegicus, UniProt P35400); experiment: CRE-luciferase reporter gene assay in rat mGlu7a transfected CHO clones; format: cell-based; settings: 1 μM forskolin and 0.5 mM L-AP4, 4 h; responses across clones ranged from no depression to this maximum
T1 construct: expressed in transfected cells
Excerpt: The cDNA of the rat mGlu7a receptor splice variant (Genbank: D16817) was inserted into a eukaryotic expression vector pcDNA3.1(+). This plasmid was transfected into CHO cells deficient in dihydrofolate reductase activity (CHO-dhfr^−) harboring a luciferase reporter gene under the control of 5 cAMP-responsive elements (CRE) using Lipofectamine plus according to the instruction of the manufacturer. Clones were isolated through limited dilutions and identified by activities in the reporter gene assay. Cells were stimulated with 1 μM forskolin and 0.5 mM L-AP4 in the assay buffer. After 4 h the supernatant was exchanged with lysis buffer and the luciferase activity measured. Responses ranged from no depression to about 83% depression. A clonal cell line displaying the greatest inhibition of forskolin-mediated luciferase activity was selected and identified as giving consistently good responses for up to at least 20 passages.

rat mGluR7 receptor = target: T2, rat mGluR7 receptor (Rattus norvegicus, UniProt P35400); experiment: Antibody mediated cellular uptake of siRNA-Cy5 in mGluR7 expressing CHO cells; format: cell-based; settings: mix of 67 nM primary antibody and 20 nM siRNA-Cy5, 37° C., 40 minutes; FIG. 5 E-H
T2 construct: expressed in transfected cells
Method: The experiment was carried out according to the protocol, with the following modifications: The cells were incubated with 67 nm primary antibody conjugated to siRNA-Cy5 (Molar ratio 1 to 0.3) or a mix of 67 nM primary antibody and 20 nM siRNA-Cy5 at 37° C. for 40 minutes. The secondary antibody used for detection of cell surface primary immunostaining was labelled with Alexa488 and the secondary antibody used for detection of whole cell primary immunostaining was labelled with Alexa532. The Trueblue and hoechst staining of the cytoplasm was replaced with a staining step following the formaldehyde fixation, where the samples where incubated with 3 uM Hoechst and 2 μg/ml CellmaskBlue in PBS for 15 minutes at roomtemperature followed by a second fixation with 4% formaldehyde for 15 minutes at roomtemperature.
Each row contains images acquired in parallel of the same field of view in the well. Panel A-D is with primary antibody labelled with siRNA-Cy5, panel E-H with primary antibody mixed with siRNA-Cy5.

T2 sequence (P35400 35-915): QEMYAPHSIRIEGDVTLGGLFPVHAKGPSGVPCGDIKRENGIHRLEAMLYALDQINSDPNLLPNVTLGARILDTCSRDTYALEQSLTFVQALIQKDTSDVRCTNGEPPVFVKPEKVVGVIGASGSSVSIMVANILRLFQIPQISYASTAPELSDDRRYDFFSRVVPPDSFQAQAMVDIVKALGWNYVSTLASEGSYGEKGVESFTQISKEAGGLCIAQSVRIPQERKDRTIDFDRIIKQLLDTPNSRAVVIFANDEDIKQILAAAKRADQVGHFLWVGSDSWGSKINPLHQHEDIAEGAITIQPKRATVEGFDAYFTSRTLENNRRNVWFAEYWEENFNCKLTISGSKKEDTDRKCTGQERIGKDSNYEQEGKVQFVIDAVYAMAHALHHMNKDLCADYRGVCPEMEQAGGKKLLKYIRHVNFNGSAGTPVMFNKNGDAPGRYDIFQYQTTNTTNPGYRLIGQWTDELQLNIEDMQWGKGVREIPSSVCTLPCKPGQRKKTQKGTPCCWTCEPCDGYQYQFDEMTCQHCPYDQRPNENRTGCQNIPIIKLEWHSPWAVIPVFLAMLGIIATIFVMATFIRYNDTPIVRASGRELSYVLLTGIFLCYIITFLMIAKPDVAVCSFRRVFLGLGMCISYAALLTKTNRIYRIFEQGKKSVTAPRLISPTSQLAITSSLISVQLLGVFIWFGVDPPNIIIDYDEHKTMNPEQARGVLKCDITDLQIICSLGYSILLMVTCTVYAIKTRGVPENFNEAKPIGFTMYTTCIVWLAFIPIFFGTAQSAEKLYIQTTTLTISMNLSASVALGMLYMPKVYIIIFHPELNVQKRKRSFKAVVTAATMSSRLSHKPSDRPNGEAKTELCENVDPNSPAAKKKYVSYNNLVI
T1 sequence (P35400 35-915): as above

For `NC(CCP(=O)(O)O)C(=O)O` [L-AP4], the “triggering of increases of p44/42 MAPK activities (specificity)” value [1] was “do not trigger increases” and the “depression of forskolin-mediated luciferase activity” value (rat mGlu7a receptor) was “about 83%”.

For `Cl.Cl.c1ccc(C(NCCNC(c2ccccc2)c2ccccc2)c2ccccc2)cc1` [AMN082, Dibenzhydrylethane-1,2-diamine dihydrochloride], the “triggering of increases of p44/42 MAPK activities (specificity)” value [1] was “do not trigger increases”.

For “siRNA: Cy5 labeled siRNA, sense SEQ ID NO: 1 with C6SSC6 linker, antisense SEQ ID NO: 2; tested mixed with IgG (sense {Cy5}-mCmUmUrAmCrGmCmUrGrArGmUrAmCmUmUmCrGrAdTdT[C6SSC6]dT; antisense rUrCrGrArArGmUrArCrUmCrArGrCrGmUrArArGdT*dT)”, the “internalization without a covalent link between IgG and siRNA” value (rat mGluR7 receptor) was “only the IgG is internalized”.
